Results: US12144814B2, “Compositions containing paraxanthine and beta-hydroxybutyrate or precursor for increasing neurological and physiological performance” (priority 2023, dated 2024)
“Also recorded” adds a separate entry of the source.

Columns and labels:
[1] = system: healthy young adults; experiment: Vigilance Task Test; format: in vivo; conditions: 200 mg paraxanthine; 5 g BHB; 200 mg paraxanthine and 5 g BHB; baseline and 1-6 hours after supplementation; FIG. 6
Excerpt: The Vigilance Task Test is another test routinely used in the field, and is used to evaluate a participants ability to sustain attention. The Vigilance Task Test is a sustained attention, reaction timed task test that measures the speed with which participants respond to a visual stimulus. The subjects respond to visual stimuli (e.g., a red dot) by pressing a key as soon as it appears on the computer screen. The light turns on at random, e.g., roughly every couple of seconds or so during the test. The speed of response is measured. Due to the random nature of the test, there is no learning effect. Mean response time is recorded. When running each such tests, subjects are given either paraxanthine+BHB, paraxanthine alone, BHB alone, or a placebo. The dosage amounts are 200 mg paraxanthine and 5 g of BHB, 200 mg of paraxanthine alone, 5 g of BHB alone, or a placebo. The testing is conducted under double blind, placebo controlled conditions. The subjects include 13 healthy young adults (10 male, 3 female), aged 24±5 years; height 170.0±11.8 cm; weight 72.9±19.3 kg.

[2] = system: healthy trained male runners; experiment: Berg-Washington Card Sorting Task Test before and after 10 km treadmill run; format: in vivo; conditions: 200 mg paraxanthine, 200 mg caffeine, 5 g BHB, and combinations, after 10 km treadmill run
Excerpt: The Berg-Washington Card Sorting Task (BCST) test is a test routinely used in the field to evaluate cognitive flexibility. The BCST test focuses on basic cognitive flexibility or set-shifting between old vs. new rule changes. The test involves reasoning, learning, executive control, and attention shifting. It is particularly sensitive to the subject's inability to shift set. Cards are shown with different colors (e.g., red, green, yellow, blue), different designs (e.g., circle, triangle, star, plus sign) and different numbers of symbols (e.g., 1-4) on the computer screen. Participants are asked to sort the cards by matching colors and/or designs and/or number of symbols, where the instruction for how to sort the cards can change, at different times during the test. Number of correct responses and number of errors (particular perservative errors, where the participant incorrectly continues sorting the cards under an old instruction, after a new instruction is given) are recorded. […] The testing is conducted under double blind, placebo controlled conditions. The subjects include 12 healthy trained male runners, aged 26±5 years. Baseline cognition tests are administered (PRE), the given supplement is ingested, and after 60 minutes of rest, a pre-race cognition test (PRE-EX) is administered. […]

[3] = system: healthy trained male runners; experiment: Vigilance Task Test before and after 10 km treadmill run; format: in vivo; conditions: 200 mg paraxanthine, 200 mg caffeine, 5 g BHB, and combinations, FIG. 13
Excerpt: The Vigilance Task Test is another test routinely used in the field, and is used to evaluate a participants ability to sustain attention. The Vigilance Task Test is a sustained attention, reaction timed task test that measures the speed with which participants respond to a visual stimulus. The subjects respond to visual stimuli (e.g., a red dot) by pressing a key as soon as it appears on the computer screen. The light turns on at random, e.g., roughly every couple of seconds or so during the test. The speed of response is measured. Due to the random nature of the test, there is no learning effect. Mean response time is recorded. […] The testing is conducted under double blind, placebo controlled conditions. The subjects include 12 healthy trained male runners, aged 26±5 years. Baseline cognition tests are administered (PRE), the given supplement is ingested, and after 60 minutes of rest, a pre-race cognition test (PRE-EX) is administered. A 10 km run on a treadmill is then performed, followed by a post-race cognition test (POST), The cognition tests include a Vigilance Task Test (measuring the ability to remain heedfully vigilant) and a Berg-Washington Card Sorting Task Test (measuring cognitive flexibility).

[4] = 28-day sports nutrition clinical study; format: in vivo; conditions: paraxanthine 100 mg, paraxanthine 100 mg with BHB 5 g, 28 days, exercise 5 days per week
Excerpt: Participants exercise 5 days per week, of the 4-week study. […] Increases in nitric oxide levels, as well as improved blood lipids scores (e.g., TG, TC, LDL, HDL) are also observed.

[5] = system: mice; experiment: Forced Swim Test on mice; format: in vivo; conditions: PX 100 mg
[6] = system: mice; experiment: Cook's Pole Climbing Test on mice; format: in vivo; conditions: PX 100 mg
[7] = target: adenosine A2a receptors (Homo sapiens, UniProt P29274); conditions: compared with caffeine; cited from earlier work
[8] = target: cGMP-preferring phosphodiesterase (PDE9) (Homo sapiens, UniProt O76083); conditions: cited from earlier work
[9] = in vivo; cited from earlier work
[10] = system: dopaminergic neurons; conditions: cited from earlier work
[11] = elevated doses; cited from earlier work

cGMP-preferring phosphodiesterase (PDE9), sequence (O76083 whole entry): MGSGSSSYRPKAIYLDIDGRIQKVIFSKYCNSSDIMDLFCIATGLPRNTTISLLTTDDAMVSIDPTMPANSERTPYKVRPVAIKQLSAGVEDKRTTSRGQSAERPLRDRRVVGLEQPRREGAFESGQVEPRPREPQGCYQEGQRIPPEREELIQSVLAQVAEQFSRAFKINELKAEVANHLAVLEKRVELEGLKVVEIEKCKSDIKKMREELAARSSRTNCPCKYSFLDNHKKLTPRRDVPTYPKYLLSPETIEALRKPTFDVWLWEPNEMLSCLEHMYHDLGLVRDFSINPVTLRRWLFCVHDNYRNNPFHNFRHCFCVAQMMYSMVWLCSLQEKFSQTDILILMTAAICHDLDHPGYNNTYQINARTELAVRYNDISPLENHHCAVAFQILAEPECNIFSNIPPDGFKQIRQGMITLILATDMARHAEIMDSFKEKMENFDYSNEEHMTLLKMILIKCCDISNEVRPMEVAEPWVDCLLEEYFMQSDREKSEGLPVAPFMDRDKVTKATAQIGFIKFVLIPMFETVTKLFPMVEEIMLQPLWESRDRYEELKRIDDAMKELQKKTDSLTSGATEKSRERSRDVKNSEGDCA
adenosine A2a receptors, sequence (P29274 whole entry): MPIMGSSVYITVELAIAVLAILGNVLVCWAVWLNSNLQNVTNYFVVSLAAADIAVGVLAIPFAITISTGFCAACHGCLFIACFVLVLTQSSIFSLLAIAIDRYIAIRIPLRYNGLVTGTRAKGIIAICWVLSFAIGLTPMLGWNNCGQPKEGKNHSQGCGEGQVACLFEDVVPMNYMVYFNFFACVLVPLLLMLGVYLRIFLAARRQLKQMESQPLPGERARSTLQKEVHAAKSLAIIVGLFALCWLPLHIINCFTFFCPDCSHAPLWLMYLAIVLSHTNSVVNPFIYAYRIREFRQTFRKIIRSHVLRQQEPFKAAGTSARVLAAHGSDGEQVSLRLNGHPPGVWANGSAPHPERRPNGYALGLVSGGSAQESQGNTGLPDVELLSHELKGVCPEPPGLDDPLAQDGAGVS

What does the source list for `Cn1c(=O)[nH]c2ncn(C)c2c1=O` [paraxanthine, 1,7-dimethylxanthine]?
Vigilance Task Test average response time [1]: faster response times; Berg-Washington Card Sorting Task Test correct responses, POST relative to PRE ([2]; FIG. 12A): some improvement in correct responses; Berg-Washington Card Sorting Task Test errors, POST relative to PRE ([2]; FIGS. 12B-12D): reduced errors; Vigilance Task Test response times [3]: some benefit; endurance (treadmill distance) ([4]; FIG. 14A): some improvement; muscle mass ([4]; FIG. 14B): some improvement; grip strength ([4]; FIG. 14C): some improvement; Duration of Immobility [5]: 5.85 min; Duration of mobility/active swimming [5]: 24.15 min; No. of Climbing [6]: 2.75; binding potency for adenosine A2a receptors [7]: higher binding potencies; inhibition of PDE9 [8]: inhibits PDE9; also recorded: selective inhibitor; locomotor activation effects [9]: stronger locomotor activation effects than caffeine; protection against neurodegeneration and the loss of synaptic function [10]: strongly protective; hypothermia and reduced locomotor activity [11]: no such problems are observed
